± gives the expanded uncertainty stated by the source.
Assay: molar heat capacity at saturation pressure
Settings: Liquid

ClCCCl [1,2-dichloroethane]
Settings | molar heat capacity [J/K/mol]
284.16 K | 128.02 ± 0.99
286.66 K | 128.21 ± 0.99
289.15 K | 128.39 ± 0.99
291.66 K | 128.58 ± 1
294.15 K | 128.75 ± 1
296.65 K | 128.94 ± 1
298.15 K | 129.06 ± 1
299.16 K | 129.11 ± 1
301.65 K | 129.39 ± 1
304.16 K | 129.47 ± 1
308.56 K | 129.86 ± 1
309.15 K | 129.86 ± 1
311.66 K | 130.16 ± 1
314.15 K | 130.4 ± 1
316.65 K | 130.55 ± 1
319.16 K | 130.88 ± 1
321.65 K | 131.09 ± 1
324.16 K | 131.2 ± 1
326.65 K | 131.56 ± 1
329.15 K | 131.87 ± 1
331.66 K | 132.06 ± 1
334.15 K | 132.24 ± 1
336.66 K | 132.59 ± 1
339.16 K | 132.82 ± 1
341.65 K | 132.96 ± 1
344.16 K | 133.32 ± 1
346.65 K | 133.59 ± 1
349.15 K | 133.83 ± 1
351.66 K | 134.22 ± 1
353.14 K | 134.46 ± 1

ClCCCCl [1,3-dichloropropane]
Settings | molar heat capacity [J/K/mol]
284.16 K | 154.94 ± 1.2
286.66 K | 155.4 ± 1.2
289.15 K | 155.76 ± 1.2
291.66 K | 156.11 ± 1.2
294.15 K | 156.39 ± 1.2
296.65 K | 156.76 ± 1.2
298.15 K | 157.03 ± 1.2
299.16 K | 157.2 ± 1.2
301.65 K | 157.65 ± 1.2
304.16 K | 157.89 ± 1.2
308.56 K | 158.63 ± 1.2
309.15 K | 158.67 ± 1.2
311.66 K | 159.23 ± 1.2
314.15 K | 159.54 ± 1.2
316.65 K | 159.89 ± 1.2
319.16 K | 160.47 ± 1.2
321.65 K | 160.93 ± 1.2
324.16 K | 161.01 ± 1.2
326.65 K | 161.59 ± 1.2
329.15 K | 162.11 ± 1.3
331.66 K | 162.48 ± 1.3
334.15 K | 162.96 ± 1.3
336.66 K | 163.33 ± 1.3
339.16 K | 163.82 ± 1.3
341.65 K | 164.1 ± 1.3
344.16 K | 164.44 ± 1.3
346.65 K | 165.1 ± 1.3
349.15 K | 165.38 ± 1.3
351.66 K | 165.81 ± 1.3
353.14 K | 166.22 ± 1.3

ClCCCCCl [1,4-dichlorobutane]
Settings | molar heat capacity [J/K/mol]
284.16 K | 181.25 ± 1.4
286.66 K | 181.71 ± 1.4
289.15 K | 182.15 ± 1.4
291.66 K | 182.62 ± 1.4
294.15 K | 182.99 ± 1.4
296.65 K | 183.49 ± 1.4
298.15 K | 183.76 ± 1.4
299.16 K | 183.89 ± 1.4
301.65 K | 184.47 ± 1.4
304.16 K | 184.8 ± 1.4
308.56 K | 185.71 ± 1.4
309.15 K | 185.83 ± 1.4
311.66 K | 186.41 ± 1.4
314.15 K | 186.88 ± 1.4
316.65 K | 187.38 ± 1.4
319.16 K | 187.89 ± 1.5
321.65 K | 188.52 ± 1.5
324.16 K | 188.85 ± 1.5
326.65 K | 189.48 ± 1.5
329.15 K | 190.01 ± 1.5
331.66 K | 190.54 ± 1.5
334.15 K | 190.99 ± 1.5
336.66 K | 191.48 ± 1.5
339.16 K | 192 ± 1.5
341.65 K | 192.36 ± 1.5
344.16 K | 193.05 ± 1.5
346.65 K | 193.63 ± 1.5
349.15 K | 194 ± 1.5
351.66 K | 194.7 ± 1.5
353.14 K | 195.12 ± 1.5

ClCCCCCCl [1,5-dichloropentane]
Settings | molar heat capacity [J/K/mol]
284.16 K | 209.5 ± 1.6
286.66 K | 210.04 ± 1.6
289.15 K | 210.65 ± 1.6
291.66 K | 211.2 ± 1.6
294.15 K | 211.7 ± 1.6
296.65 K | 212.19 ± 1.6
298.15 K | 212.63 ± 1.6
299.16 K | 212.96 ± 1.6
301.65 K | 213.55 ± 1.6
304.16 K | 214.12 ± 1.7
308.56 K | 215.36 ± 1.7
309.15 K | 215.26 ± 1.7
311.66 K | 215.96 ± 1.7
314.15 K | 216.61 ± 1.7
316.65 K | 217.17 ± 1.7
319.16 K | 217.92 ± 1.7
321.65 K | 218.56 ± 1.7
324.16 K | 219 ± 1.7
326.65 K | 219.91 ± 1.7
329.15 K | 220.61 ± 1.7
331.66 K | 221.16 ± 1.7
334.15 K | 221.76 ± 1.7
336.66 K | 222.43 ± 1.7
339.16 K | 223.1 ± 1.7
341.65 K | 223.58 ± 1.7
344.16 K | 224.7 ± 1.7
346.65 K | 225.01 ± 1.7
349.15 K | 225.75 ± 1.8
351.66 K | 226.41 ± 1.8
353.14 K | 227.13 ± 1.8

ClCCCCCCCl [1,6-dichlorohexane]
Settings | molar heat capacity [J/K/mol]
284.16 K | 236.57 ± 1.8
286.66 K | 237.13 ± 1.8
289.15 K | 237.89 ± 1.8
291.66 K | 238.51 ± 1.9
294.15 K | 239.26 ± 1.9
296.65 K | 239.89 ± 1.9
298.15 K | 240.39 ± 1.9
299.16 K | 240.68 ± 1.9
301.65 K | 241.35 ± 1.9
304.16 K | 242 ± 1.9
308.56 K | 243 ± 1.9
309.15 K | 243.48 ± 1.9
311.66 K | 244.27 ± 1.9
314.15 K | 245.06 ± 1.9
316.65 K | 245.79 ± 1.9
319.16 K | 246.57 ± 1.9
321.65 K | 247.24 ± 1.9
324.16 K | 247.78 ± 1.9
326.65 K | 248.95 ± 1.9
329.15 K | 249.58 ± 1.9
331.66 K | 250.36 ± 1.9
334.15 K | 251.24 ± 1.9
336.66 K | 252 ± 1.9
339.16 K | 252.72 ± 2
341.65 K | 253.7 ± 2
344.16 K | 254.49 ± 2
346.65 K | 255.12 ± 2
349.15 K | 255.75 ± 2
351.66 K | 257 ± 2
353.14 K | 257.47 ± 2

CCCCO [butan-1-ol]
Settings | molar heat capacity [J/K/mol]
303.15 K | 181.16 ± 1.4
313.15 K | 188.39 ± 1.5
323.15 K | 196.66 ± 1.5
333.15 K | 205.33 ± 1.6
343.15 K | 214.22 ± 1.7

Cc1ccccc1 [toluene]
Settings | molar heat capacity [J/K/mol]
283.15 K | 152.85 ± 1.2
293.15 K | 155.56 ± 1.2
303.15 K | 158.38 ± 1.2
313.15 K | 161.47 ± 1.2
323.15 K | 164.51 ± 1.3
333.15 K | 167.63 ± 1.3
343.15 K | 170.85 ± 1.3

O [water]
Settings | molar heat capacity [J/K/mol]
283.15 K | 75.47 ± 0.58
293.15 K | 75.29 ± 0.58
303.15 K | 75.29 ± 0.58
313.15 K | 75.34 ± 0.58
323.15 K | 75.32 ± 0.58
333.15 K | 75.33 ± 0.58
343.15 K | 75.38 ± 0.58

From the NIST ThermoML archive (doi:10.1021/je020042y)
